Assays:
HeLa = experiment: Antiproliferative activity against human HeLa cells assessed as reduction in cell viability measured after 72 hrs; assay type: functional, cell-based
K562 = experiment: Antiproliferative activity against human K562 cells assessed as reduction in cell viability measured after 72 hrs; assay type: functional, cell-based; details: K562, 72 h
MOLM-13 = experiment: Antiproliferative activity against human MOLM-13 cells assessed as reduction in cell viability measured after 72 hrs; assay type: functional, cell-based; details: MOLM-13, 72 h
A2780S [1] = experiment: Antiproliferative activity against human A2780S cells assessed as reduction in cell viability measured after 72 hrs; assay type: functional, cell-based
A2780/Taxol [2] = experiment: Antiproliferative activity against human A2780T cells assessed as reduction in cell viability measured after 72 hrs; assay type: functional, cell-based
A549 = experiment: Antiproliferative activity against human A549 cells assessed as reduction in cell viability measured after 72 hrs; assay type: functional, cell-based; details: A549, 72 h
A549/TR = experiment: Antiproliferative activity against paclitaxel resistant human A549T cells assessed as reduction in cell viability measured after 72 hrs; assay type: functional, cell-based
NCI/ADR-RES = experiment: Antiproliferative activity against human MCF7ADR cells assessed as reduction in cell viability measured after 72 hrs; assay type: functional, cell-based
[3] = Selectivity ratio of IC50 for human MCF7ADR cells to IC50 for human MCF7; assay type: toxicity
A2780S [4] = experiment: Induction of cell cycle arrest in human A2780S cells assessed as accumulation of cells at G0/G1 phase at 3 nM measured after 24 hrs by propidium iodide staining based analysis (reference value: 51.71%); assay type: functional
A2780S [5] = experiment: Induction of cell cycle arrest in human A2780S cells assessed as accumulation of cells at G0/G1 phase at 100 nM measured after 24 hrs by propidium iodide staining based analysis (reference value: 51.71%); assay type: functional
A2780S [6] = experiment: Induction of cell cycle arrest in human A2780S cells assessed as accumulation of cells at S phase at 30 nM measured after 24 hrs by propidium iodide staining based analysis (reference value: 29.85%); assay type: functional
A2780S [7] = experiment: Induction of cell cycle arrest in human A2780S cells assessed as accumulation of cells at S phase at 100 nM measured after 24 hrs by propidium iodide staining based analysis (reference value: 29.85%); assay type: functional
A2780/Taxol [8] = experiment: Induction of cell cycle arrest in human A2780T cells assessed as accumulation of cells at G0/G1 phase at 10 nM measured after 24 hrs by propidium iodide staining based analysis (reference value: 46.141%); assay type: functional
A2780/Taxol [9] = experiment: Induction of cell cycle arrest in human A2780T cells assessed as accumulation of cells at G0/G1 phase at 100 nM measured after 24 hrs by propidium iodide staining based analysis (reference value: 46.141%); assay type: functional
A2780/Taxol [10] = experiment: Induction of cell cycle arrest in human A2780T cells assessed as accumulation of cells at G2/M phase at 10 nM measured after 24 hrs by propidium iodide staining based analysis (reference value: 24.13%); assay type: functional
A2780/Taxol [11] = experiment: Induction of cell cycle arrest in human A2780T cells assessed as accumulation of cells at G2/M phase at 30 nM measured after 24 hrs by propidium iodide staining based analysis (reference value: 24.13%); assay type: functional
A2780/Taxol [12] = experiment: Induction of cell cycle arrest in human A2780T cells assessed as accumulation of cells at G2/M phase at 100 nM measured after 24 hrs by propidium iodide staining based analysis (reference value: 24.13%); assay type: functional
A2780/Taxol [13] = experiment: Induction of cell cycle arrest in human A2780T cells assessed as accumulation of cells at G2/M phase at 300 nM measured after 24 hrs by propidium iodide staining based analysis (reference value: 24.13%); assay type: functional
A2780/Taxol [14] = experiment: Induction of cell cycle arrest in human A2780T cells assessed as accumulation of cells at S phase at 3 nM measured after 24 hrs by propidium iodide staining based analysis (reference value: 29.73%); assay type: functional
A2780/Taxol [15] = experiment: Induction of cell cycle arrest in human A2780T cells assessed as accumulation of cells at S phase at 30 nM measured after 24 hrs by propidium iodide staining based analysis (reference value: 29.73%); assay type: functional
A2780/Taxol [16] = experiment: Induction of cell cycle arrest in human A2780T cells assessed as accumulation of cells at S phase at 100 nM measured after 24 hrs by propidium iodide staining based analysis (reference value: 29.73%); assay type: functional
A2780S [17] = experiment: Induction of apoptosis in human A2780S cells assessed as total number of late apoptotic cells at 100 nM measured after 48 hrs by Annexin-V-FITC and PI staining based flow cytometry analysis (reference value: 3.42%); assay type: functional
A2780/Taxol [18] = experiment: Induction of apoptosis in human A2780T cells assessed as total number of late apoptotic cells at 30 nM measured after 48 hrs by Annexin-V-FITC and PI staining based flow cytometry analysis (reference value: 3.42%); assay type: functional
A2780/Taxol [19] = experiment: Induction of apoptosis in human A2780T cells assessed as total number of late apoptotic cells at 300 nM measured after 48 hrs by Annexin-V-FITC and PI staining based flow cytometry analysis (reference value: 3.42%); assay type: functional
A2780S [20] = experiment: Antitumor activity against human A2780S cells xenografted in mouse model assessed as tumor growth inhibition at 30 mg/kg, iv administered every two days for 12 days relative to control; assay type: functional; details: 288 h, time 12 day, read-out: TGI
A2780/Taxol [21] = experiment: Antitumor activity against human A2780T cells xenografted in mouse model assessed as tumor growth inhibition at 10 mg/kg, iv administered every two days for 18 days relative to control; assay type: functional; details: 432 h, time 18 day, read-out: TGI
A2780/Taxol [22] = experiment: Antitumor activity against human A2780T cells xenografted in mouse model assessed as tumor growth inhibition at 40 mg/kg, iv administered every two days for 18 days relative to control; assay type: functional; details: 432 h, time 18 day, read-out: TGI
[23] = Toxicity in mouse xenografted with human A2780S cells assessed as effect on body weight at 10 to 30 mg/kg, iv measured upto 12 days; assay type: organism-based; details: in vivo, 288 h, dose 10-30 mg/kg, time < 12 day
[24] = Toxicity in mouse xenografted with human A2780T cells assessed as effect on body weight at 10 to 30 mg/kg, iv measured upto 18 days; assay type: organism-based, A2780/Taxol; details: in vivo, 432 h, dose 10-30 mg/kg, time < 18 day
[25] = Toxicity in mouse xenografted with human A2780T cells assessed as side effects at 10 to 30 mg/kg, iv measured upto 18 days; assay type: organism-based, A2780/Taxol; details: in vivo, 432 h, dose 10-30 mg/kg, time < 18 day
[26] = Volume of distribution at steady state in male Sprague-Dawley rat at 10 mg/kg, iv; assay type: ADME, organism-based; details: in vivo, read-out: Vdss
[27] = Half life in male Sprague-Dawley rat at 10 mg/kg, po; assay type: ADME, organism-based; details: in vivo
[28] = Tmax in male Sprague-Dawley rat at 10 mg/kg, po; assay type: ADME, organism-based; details: in vivo
[29] = Volume of distribution at steady state in male Sprague-Dawley rat at 10 mg/kg, po; assay type: ADME, organism-based; details: in vivo
[30] = AUC (0 to t) in male Sprague-Dawley rat at 10 mg/kg, po; assay type: ADME, organism-based; details: in vivo
HCT-116 = experiment: cells; details: Homo sapiens, HCT-116, 72 h
Description: Antiproliferative activity against human HCT-116 cells assessed as reduction in cell viability measured after 72 hrs

MCF7 = experiment: cells; details: Homo sapiens, MCF7, 72 h
Description: Antiproliferative activity against human MCF7 cells assessed as reduction in cell viability measured after 72 hrs

IC50 (HeLa): 50 nM
IC50 (K562): 30 nM
IC50 (MOLM-13): 20 nM
IC50 (A2780S [1]): 18 nM
IC50 (A2780/Taxol [2]): 16 nM
IC50 (A549): 34 nM
IC50 (A549/TR): 37 nM
Vd [26]: 7.43 L/kg
half-life [27]: 5.94 h
Tmax [28]: 3.67 h
Vdss [29]: 154.68 L/kg
AUC(0-t) [30]: 447 ng·h/mL
IC50 (HCT-116): 30 nM
IC50 (MCF7): 20 nM
SMILES: COc1cccc(-c2cc(NCc3ccc4[nH]ccc4c3)nc(N)n2)c1
IC50 (NCI/ADR-RES): 32 nM
Ratio IC50 [3]: 1.6
Activity (A2780S [4]): 47.48%
Activity (A2780S [5]): 20.38%
Activity (A2780S [6]): 28.02%
Activity (A2780S [7]): 37.17%
Activity (A2780/Taxol [8]): 46.48%
Activity (A2780/Taxol [9]): 7.72%
Activity (A2780/Taxol [10]): 20.61%
Activity (A2780/Taxol [11]): 20%
Activity (A2780/Taxol [12]): 83.16%
Activity (A2780/Taxol [13]): 83.98%
Activity (A2780/Taxol [14]): 29.77%
Activity (A2780/Taxol [15]): 35.74%
Activity (A2780/Taxol [16]): 9.12%
Activity (A2780S [17]): 14.43%
Activity (A2780/Taxol [18]): 5.29%
Activity (A2780/Taxol [19]): 15.57%
inhibition in vivo at 30 mg/kg (A2780S [20]): 79.4%
inhibition in vivo at 10 mg/kg (A2780/Taxol [21]): 52.2%
inhibition in vivo at 40 mg/kg (A2780/Taxol [22]): 82%
Activity [23]: Non-Toxic
Activity [24]: Non-Toxic
Activity [25]: Toxic

Source: ChEMBL document CHEMBL5543108, “Structure-based design and synthesis of BML284 derivatives: A novel class of colchicine-site noncovalent tubulin degradation agents” (Eur J Med Chem, 2024)
